The term inhibition denotes the percentage by which the read-out fell short of the control.

Assay [1] concerns the target T1, Hb (Homo sapiens, UniProt P68871+P69905).
T1 construct: normal whole blood (AA); from tissue; host or cells: normal whole blood (AA), red blood cells
Kind of assay: Oxygen equilibrium curve (OEC) study with normal whole blood (AA). Format: cell-based. The settings on record: for ΔP50: versus DMSO control. On the procedure:
(§1) Studies were performed on compounds TD-7, TD-7-1, TD-8, TD-8-1, TD-9 and TD-9-1 using 100 mM stock solution in DMSO and normal whole blood (AA). TD-7, TD-8 and TD-9 are compounds with a hydroxymethyl group on the pyridine ring, while TD-7-1, TD-8-1 and TD-9-1 are the respective nitrate ester derivatives. The whole blood samples had hematocrit values ranging from 29-36%, and cell-free purified Hb of 10-12 g/dL in the absence or presence of effectors solubilized in DMSO at 2 mM or in some cases with varying compound concentration. The blood samples were incubated in an IL 237 tonometer (Instrumentation Laboratories, Inc., Lexington, Mass.) for about 5-7 min at 37° C. against a gas mixture containing O2 concentrations of 0.804%, 2.935% and 5.528% and allowed to equilibrate at O2 tensions of 6, 20 and 40 mmHg. After equilibration, the sample was removed via syringe and aspirated into a ABL 700 series table top automated blood gas analyzer (Radiometer America, Inc., Westlake, Ohio) to determine total hemoglobin (tHb), hematocrit (Hct), pH, pCO2, partial pressure of oxygen (pO2), and the Hb oxygen saturation values (sO2). Similar procedures were followed for concentration and time dependence studies. The measured values of pO2 and sO2 at each oxygen saturation level were then subjected to a non-linear regression analysis using the program Scientist (Micromath, Salt Lake City, Utah) with the following equation: […]
This equation was used to calculate P50 and Hill coefficient (N) values. Corresponding control experiments without the test compound (P50control) but containing DMSO were also performed.

Another assay has as its target T2, cell-free Hb (Homo sapiens, UniProt P68871+P69905).
T2 construct: Hemoglobin was prepared from centrifuging human blood; from tissue; host or cells: human blood (red cells lysed, Hb purified on DEAE sephacel)
Kind of assay: OEC study with normal cell-free Hb. Type of assay: biochemical. The following applies: cell-free Hb 12 mg/mL, 2 mM compound; for N (Hill coefficient) / P50: n = 1; for ΔP50: versus control P50 12.5. How it is done:
as §1
Hemoglobin was prepared from centrifuging human blood at 2500 rpms for 20 min at 4° C. The supernatant solution, debris and plasma were discarded from the centrifuge bottles, leaving behind RBCs. The RBCs were washed thrice with an excess volume of 0.9% NaCl, and once with 1.0% NaCl, each time centrifuging and discarding the supernatant solution. The RBCs were pooled together into a chilled flask and hemolyzed to free Hb by adding 1-2 volume excess of 50 mM Tris buffer, pH 8.6 (containing EDTA). The mixture was allowed to stand in ice for 30 min with occasional stirring. The Hb solution was centrifuged at 10,000 rpm for 2 h at 4° C. The supernatant Hb solution was pooled into a chilled flask and NaCl (40-60 mg/mL Hb solution) was slowly added with stirring. Hemoglobin solution was centrifuged at 10,000 rpm for 2 h at 4° C. to remove any cell stroma remnants. The clear supernatant Hb solution was pooled into a chilled flask and the “syrupy” pellet was discarded. Hemoglobin solution was dialyzed against 50 mM Tris buffer, pH 8.6 (containing EDTA) at 4° C. to remove NaCl and/or other low molecular weight impurities. Strips of standard cellulose dialysis tubing that had been washed 3-4 times and boiled for 10 min in deionized water were used for dialysis. The dialyzed Hb was further purified by ion-exchange chromatography using DEAE sephacel to exclude 2,3-DPG. The resin was equilibrated with 50 mM Tris buffer, pH 8.6, and the Hb solution was run through the column with 50 mM Tris buffer, pH 8.6 (containing EDTA). The pooled fractions were concentrated with an Amicon stirred cell (Amicon, Model 402), to a final HbA concentration of about 80-120 mg/mL. Concentrated HbA was stored at −80° C.
As a result of the low left-shifting activities of TD-8 and TD-9, as well as the nitrate ester derivatives, we further evaluated the activity of the compounds TD-1, TD-7, TD-7-1, TD-8, and TD-9 using cell-free Hb (devoid of any proteins, enzymes, plasma and cell membranes) to determine whether plasma protein or RBC membrane could have any effect on compound biological activity. Previous studies have shown limited effect of plasma protein and RBC membrane on SHMF activity. The same tonometry procedure used on whole blood was used with the cell-free hemoglobin using 2 mM compound and 12 mg/mL of Hb.

The test system of a further assay is SS cells. Kind of assay: In vitro RBC anti-sickling (morphological) study with SS cells. Type of assay: cell-based, human. The settings on record: SS cells, 1 h air then 4% O2, 37° C., 5 h; for inhibition at 500 µM / inhibition at 1000 µM / inhibition at 2000 µM / inhibition at 5000 µM: Homo sapiens, read-out: Inhibition of sickled cells; for inhibition at 1000 µM: 1.0 mM; for inhibition at 2000 µM: 2.0 mM; for inhibition at 5000 µM: 5.0 mM. How it is done: In vitro RBC morphological (anti-sickling) analysis was conducted at the Children's Hospital of Philadelphia (by Drs. Toshio Asakura and Osheiza Abdulmalik). The anti-sickling effects of 5HMF, TD-7 HCl, TD-7, TD-1, and TD-7-1 were studied by incubating suspensions of SS cells in the absence or presence of three different concentrations of the effectors in the presence of air for 1 h at 37° C. followed by incubation under 4% oxygen at 37° C. for 5 h. All samples were pre-incubated for 1 h with various compounds and then incubated under 4% O2 for 5 h. […] Table 5 represents the concentrations of the effectors along with the % inhibition of sickling cells. The hemolysates that had been prepared from SS cells after incubation with test compounds were also subjected to cation-exchange HPLC as previously reported (Abdulmalik et al., 2005).

Assay [2] has as its target T1, Hb. Description: Time-dependent OEC study with whole blood. Type of assay: cell-based. The following applies: 0.5 mM; for P50: whole blood (Hct~34%); for N (Hill coefficient) / ΔP50: whole blood. On the procedure:
as §1
All samples were pre-incubated with whole blood (Hct˜34%) with the specified compounds 0.5 mM concentrations for the specified time. The control experiment without test compound (P50 (control)) contains the same concentration of DMSO used to solubilize the test solution (P50 (sample)).

Where [3] appears, read: 2 mM compound, 1.5 h incubation.
The mark [4] stands for this setting: 2 mM compound, 1.5 h incubation, 37° C.

T1 sequence (P69905 2-142 limits assumed): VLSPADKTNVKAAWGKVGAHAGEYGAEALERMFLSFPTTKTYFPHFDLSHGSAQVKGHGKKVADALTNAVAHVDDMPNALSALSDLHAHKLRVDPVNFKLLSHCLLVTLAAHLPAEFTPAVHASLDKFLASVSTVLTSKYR
T1 sequence (P68871 2-147 limits assumed): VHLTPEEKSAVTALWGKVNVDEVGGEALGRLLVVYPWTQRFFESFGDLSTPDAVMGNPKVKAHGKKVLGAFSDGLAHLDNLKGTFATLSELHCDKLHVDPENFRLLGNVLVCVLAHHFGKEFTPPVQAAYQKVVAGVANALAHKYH
T2 sequence (P69905 2-142 limits assumed): as the sequence (P69905 2-142 limits assumed) above
T2 sequence (P68871 2-147 limits assumed): as the sequence (P68871 2-147 limits assumed) above

Take `COc1ccc(C=O)cc1OCc1cccc(CO)n1` [TD-8, 3-((6-(Hydroxymethyl)pyridine-2-yl)methoxy)-4-methoxybenzaldehyde]: at Hb [1] (setting [3]), the “N (Hill coefficient)” value is given as 1.9 ± 0.1^c† and the ΔP50 is −5.4 mmHg. On Hb [1] (setting [4]), the P50 was 25.9 ± 2.5^c† mmHg. At cell-free Hb, the “N (Hill coefficient)” value is 1.9, the P50 is on record as 7.6 mmHg and the ΔP50 is listed as −4.9 mmHg. The inhibition at 500 µM with SS cells (0.5 mM) was determined as 14%. For the same compound, in the assay with SS cells, the inhibition at 1000 µM stood at 20% and the inhibition at 2000 µM is 38%.

As for `COc1ccc(C=O)c(OCc2cccc(CO)n2)c1` [TD-9, 2-((6-(Hydroxymethyl)pyridin-2-yl)methoxy)-4-methoxybenzaldehyde], at Hb [1] (setting [3]), the “N (Hill coefficient)” value was 1.6 ± 0.3^c† and the ΔP50 is on record as −10.2 mmHg. For the same compound, the P50 at Hb [1] (setting [4]) is 21.1 ± 1.2^c† mmHg. On cell-free Hb, the “N (Hill coefficient)” value worked out at 1.7, the P50 is recorded as 6.8 mmHg and the ΔP50 is −5.7 mmHg. In addition, in the assay with SS cells (0.5 mM), the inhibition at 500 µM is 26%. In the assay on SS cells, the inhibition at 1000 µM was 35% and the inhibition at 2000 µM was determined as 57%.

Turning to `COc1ccc(OCc2cccc(CO)n2)c(C=O)c1` [TD-7, 2-((6-(Hydroxymethyl)pyridin-2-yl)methoxy)-5-methoxybenzaldehyde], the “N (Hill coefficient)” value on Hb [1] (0.1 mM compound) is given as 2.5^d*; on Hb [1] (0.5 mM compound), 2.1^d*; at Hb [1] (1 mM compound) it was 1.7^d*; on Hb [1] (setting [3]), 1.3 ± 0.3^c†; on cell-free Hb, 1.8; at Hb [2] (incubation 1 h) it was 2.2 ± 0.2. Besides, the “N (Hill coefficient)” value was determined as 2.1 ± 0.1 on Hb [2] (incubation 2 h); 2.1 ± 0.1 at Hb [2] (incubation 4 h); 2.0 ± 0.2 on Hb [2] (incubation 6 h); 2.0 ± 0.1 at Hb [2] (incubation 10 h); 2.0 ± 0.2 on Hb [2] (incubation 12 h). In addition, the P50 is on record as 30.1^d* mmHg at Hb [1] (0.1 mM compound); 25.9^d* mmHg at Hb [1] (0.5 mM compound); 23.2^d* mmHg at Hb [1] (1 mM compound); 14.3 ± 4.3^c† mmHg at Hb [1] (setting [4]); 7.6 mmHg at cell-free Hb; 28.2 ± 0.9 mmHg at Hb [2] (incubation 1 h). Further, the P50 on Hb [2] (incubation 2 h) worked out at 28.2 ± 0.8 mmHg; on Hb [2] (incubation 4 h), 28.8 ± 0.6 mmHg; on Hb [2] (incubation 6 h) it was 29.1 ± 0.6 mmHg; on Hb [2] (incubation 10 h), 30.6 ± 1.0 mmHg; at Hb [2] (incubation 12 h), 31.1 ± 0.7 mmHg. Moreover, the ΔP50 at Hb [1] (0.1 mM compound) was −0.5 mmHg; on Hb [1] (0.5 mM compound), −4.7 mmHg; at Hb [1] (1 mM compound) it was −7.4 mmHg; on Hb [1] (setting [3]), −17.0 mmHg; at cell-free Hb, −4.9 mmHg; at Hb [2] (incubation 1 h) it was −4.5 mmHg. Further, the ΔP50 at Hb [2] (incubation 2 h) is given as −4.8 mmHg; on Hb [2] (incubation 4 h), −4.3 mmHg; at Hb [2] (incubation 6 h) it was −5.1 mmHg; on Hb [2] (incubation 10 h) it was −4.5 mmHg; on Hb [2] (incubation 12 h), −5.0 mmHg. Also, the inhibition at 500 µM in the assay on SS cells (0.5 mM) was found to be 95%. In the assay on SS cells, the inhibition at 1000 µM was determined as 95%. For the same compound, the inhibition at 2000 µM in the assay with SS cells worked out at 100%. In the assay on SS cells, the inhibition at 5000 µM is 100%.

For `COc1cc(C=O)ccc1O` [vanillin, reference compound], the inhibition at 5000 µM with SS cells is 12%.

For the compound `COc1ccc(OCc2cccnc2)c(C=O)c1` [INN-312, reference compound], the “Inhibition of sickled cells” value with SS cells (0.5 mM) is 15%.

Turning to `O=Cc1ccc(CO)o1` [Compound 5HMF, 5-(hydroxymethyl) furfural, reference compound], the “N (Hill coefficient)” value on Hb [1] (setting [3]) was 1.8 ± 0.1^c†; at cell-free Hb, 2.0; on Hb [2] (incubation 1 h), 2.2 ± 0.1; on Hb [2] (incubation 2 h), 2.2 ± 0.1; at Hb [2] (incubation 4 h), 2.1 ± 0.1; on Hb [2] (incubation 6 h), 2.1 ± 0.1. Also, the “N (Hill coefficient)” value on Hb [2] (incubation 10 h) came to 2.1 ± 0.1; on Hb [2] (incubation 12 h), 2.0 ± 0.1. Moreover, the P50 was 20.2 ± 2.0^c† mmHg at Hb [1] (setting [4]); 8.3 mmHg on cell-free Hb; 29.8 ± 0.2 mmHg on Hb [2] (incubation 1 h); 29.2 ± 0.3 mmHg on Hb [2] (incubation 2 h); 29.2 ± 0.1 mmHg at Hb [2] (incubation 4 h); 30.0 ± 0.1 mmHg at Hb [2] (incubation 6 h). The results for the P50 on Hb [2] (incubation 10 h) and at Hb [2] (incubation 12 h) were 31.8 ± 0.1 mmHg and 32.8 ± 0.1 mmHg, respectively. The ΔP50 was −11.1 mmHg on Hb [1] (setting [3]); −4.2 mmHg on cell-free Hb; −2.9 mmHg on Hb [2] (incubation 1 h); −3.8 mmHg on Hb [2] (incubation 2 h); −3.9 mmHg at Hb [2] (incubation 4 h); −4.2 mmHg at Hb [2] (incubation 6 h). For the same compound, the ΔP50 on Hb [2] (incubation 10 h) and on Hb [2] (incubation 12 h) was −3.3 mmHg in each case. Also, the inhibition at 500 µM with SS cells (0.5 mM) was determined as 4%. Also, in the assay with SS cells, the inhibition at 1000 µM is 17%. In addition, the inhibition at 2000 µM in the assay with SS cells amounted to 35%. Further, the inhibition at 5000 µM in the assay on SS cells amounted to 75%.

Values taken from patent publication US10858331B1, “Ester nitrates derivatives of aromatic aldehydes with multiple pharmalogic properties to treat sickle cell disease” (VIRGINIA COMMONWEALTH UNIVERSITY, priority 2013, dated 2020).
